The test system of assay [1] is Mycobacterium tuberculosis. Nature of the assay: Antitubercular activity against Mycobacterium tuberculosis H37Rv assessed as growth inhibition after 12 to 28 days by Lowenstein-Jensen agar method. In kind it is functional. Particulars: for MIC: Mycobacterium tuberculosis, H37Rv; call rule not given here.
Another assay deals with Leishmania braziliensis. Nature of the assay: Antileishmanial activity against promastigote stage of Leishmania braziliensis H3 assessed as parasite growth inhibition after 72 hrs by Neubauer chamber counting method. The class given is functional, organism-based.
The test system of another assay is Aspergillus niger. Nature of the assay: Antifungal activity against Aspergillus niger MTCC 282 assessed as growth inhibition by broth microdilution method. In kind it is functional. A general note: In broth dilution the organism is exposed to a series of concentrations in liquid medium.
In the next assay the test system is Aspergillus clavatus. Nature of the assay: Antifungal activity against Aspergillus clavatus MTCC 1323 assessed as growth inhibition by broth microdilution method. The class given is functional.
In assay [2] the test system is Candida albicans. Nature of the assay: Antifungal activity against Candida albicans MTCC 227 assessed as growth inhibition by broth microdilution method. The class given is functional.
Another assay has as its system Pseudomonas aeruginosa. Briefly: Antibacterial activity against Pseudomonas aeruginosa MTCC 2488 assessed as growth inhibition by broth microdilution method. In kind it is functional.
The next assay concerns Escherichia coli. Briefly: Antibacterial activity against Escherichia coli MTCC 442 assessed as growth inhibition by broth microdilution method. In kind it is functional.
In the next assay the test system is Streptococcus pyogenes. Briefly: Antibacterial activity against Streptococcus pyogenes MTCC 443 assessed as growth inhibition by broth microdilution method. The class given is functional.
For a further assay, the system named is Staphylococcus aureus. Nature of the assay: Antibacterial activity against Staphylococcus aureus MTCC 96 assessed as growth inhibition by broth microdilution method. The class given is functional.
The test system of assay [3] is Candida albicans. Briefly: Potency index, ratio of griseofulvin MIC to compound MIC for Candida albicans MTCC 227. In kind it is functional.
Where [4] appears, read: Leishmania braziliensis, H3, 72 h, read-out: IC50.

In brackets after ≈: the same amount, converted by molar mass.

What is called MIC is the lowest concentration found to suppress growth. As a reminder, the IC50 is the concentration needed to halve the response being measured. As usually defined, the MIC99 is the lowest concentration that inhibits either 99% of growth or 99% of the strains tested, depending on the study.

On to `COc1ccc(C2CC(c3cccc([N+](=O)[O-])c3)=NN2C(C)=O)cc1` (configuration not stated), for which the “growth inhibition (GI)” value in assay [1] was determined as 99%. In assay [1], the MIC was 250 µg/mL (≈ 737 µM). Further, in the assay with Leishmania braziliensis, the IC50 result is given as “Not Active”. Further, the MIC99 came to 1000 µg/mL in the assay with Aspergillus niger; 1000 µg/mL with Aspergillus clavatus; 1000 µg/mL in the assay with Candida albicans [2]; 250 µg/mL with Pseudomonas aeruginosa; 250 µg/mL with Escherichia coli; 250 µg/mL in the assay with Streptococcus pyogenes. The MIC99 in the assay with Staphylococcus aureus was 250 µg/mL.
As for `CC(=O)N1N=C(c2cccc([N+](=O)[O-])c2)CC1c1ccc2c(c1)OCO2` (configuration not stated), in assay [1], the “growth inhibition (GI)” value amounted to 99%. In [1], the MIC is 250 µg/mL (≈ 708 µM). For the same molecule, the IC50 result with Leishmania braziliensis is on record as “Not Active”. Also, the MIC99 in the assay with Aspergillus niger was 500 µg/mL; with Aspergillus clavatus, 500 µg/mL; in the assay with Candida albicans [2], 500 µg/mL; in the assay on Pseudomonas aeruginosa it was 200 µg/mL; with Escherichia coli, 250 µg/mL; in the assay on Streptococcus pyogenes, 250 µg/mL. Further, the MIC99 in the assay with Staphylococcus aureus is 250 µg/mL.
On to `COc1cc(OC)c(OC)cc1/C=C/C(=O)c1cccc([N+](=O)[O-])c1`, for which, in assay [1], the “growth inhibition (GI)” value is reported as 99%. Further, the MIC in assay [1] turned out to be 250 µg/mL (≈ 728 µM). The half-inhibitory concentration (IC50) result in the assay on Leishmania braziliensis is “Not Active”. The MIC99 in the assay with Aspergillus niger amounted to 1000 µg/mL; with Aspergillus clavatus it was 1000 µg/mL; in the assay with Candida albicans [2], 1000 µg/mL; in the assay on Pseudomonas aeruginosa it was 125 µg/mL; in the assay with Escherichia coli, 125 µg/mL; in the assay with Streptococcus pyogenes it was 500 µg/mL. Further, in the assay on Staphylococcus aureus, the MIC99 was 500 µg/mL.
`O=[N+]([O-])c1cccc(C2=NNC(c3ccc4c(c3)OCO4)C2)c1` (configuration not stated): in [1], the “growth inhibition (GI)” value is listed as 98%. The MIC in assay [1] turned out to be 500 µg/mL (≈ 1610 µM). In the assay on Leishmania braziliensis, the IC50 entry is given as “Not Active”. In addition, the Ratio in the assay on Candida albicans [3] was found to be 2. For the same molecule, the MIC99 in the assay with Aspergillus niger is 1000 µg/mL; with Aspergillus clavatus it was 1000 µg/mL; with Candida albicans [2] it was 250 µg/mL; in the assay with Pseudomonas aeruginosa, 200 µg/mL; with Escherichia coli, 100 µg/mL; in the assay on Streptococcus pyogenes it was 125 µg/mL. Moreover, the MIC99 in the assay on Staphylococcus aureus turned out to be 100 µg/mL.
For `CCOC(=O)C1C(=O)C=C(c2cccc([N+](=O)[O-])c2)CC1c1ccc(OC)cc1` (configuration not stated), the “growth inhibition (GI)” value in [1] is 98%. For the same molecule, in [1], the minimal inhibitory concentration (MIC) is 500 µg/mL (≈ 1260 µM). In the assay with Leishmania braziliensis, the IC50 entry is on record as “Not Active”. The MIC99 is above 1000 µg/mL in the assay with Aspergillus niger; above 1000 µg/mL with Aspergillus clavatus; 500 µg/mL in the assay with Candida albicans [2]; 200 µg/mL with Pseudomonas aeruginosa; 100 µg/mL in the assay on Escherichia coli; 500 µg/mL in the assay on Streptococcus pyogenes. In the assay on Staphylococcus aureus, the MIC99 is 250 µg/mL.
As for `CCOC(=O)C1C(=O)C=C(c2cccc([N+](=O)[O-])c2)CC1c1ccc2c(c1)OCO2` (configuration not stated), the “growth inhibition (GI)” value in assay [1] is given as 99%. For the same molecule, in assay [1], the minimum inhibitory concentration (MIC) was 250 µg/mL (≈ 611 µM). Further, the IC50 entry in the assay on Leishmania braziliensis is “Not Active”. Moreover, the MIC99 in the assay with Aspergillus niger turned out to be 1000 µg/mL; in the assay on Aspergillus clavatus it was 1000 µg/mL; in the assay with Candida albicans [2], 500 µg/mL; with Pseudomonas aeruginosa, 200 µg/mL; in the assay with Escherichia coli, 125 µg/mL; in the assay on Streptococcus pyogenes, 200 µg/mL. For the same molecule, the MIC99 in the assay with Staphylococcus aureus was determined as 250 µg/mL.
In the case of `CCOC(=O)C1C(=O)C=C(c2cccc([N+](=O)[O-])c2)CC1c1cc(OC)c(OC)c(OC)c1` (configuration not stated), in assay [1], the “growth inhibition (GI)” value was found to be 99%. In addition, the MIC in assay [1] is 250 µg/mL (≈ 549 µM). The IC50 result in the assay on Leishmania braziliensis was “Not Active”. Further, the MIC99 in the assay with Aspergillus niger is above 1000 µg/mL; in the assay with Aspergillus clavatus it was above 1000 µg/mL; in the assay on Candida albicans [2], 100 µg/mL; with Pseudomonas aeruginosa, 200 µg/mL; with Escherichia coli it was 200 µg/mL; in the assay on Streptococcus pyogenes, 200 µg/mL. Also, the MIC99 in the assay on Staphylococcus aureus came to 200 µg/mL.
As for `COc1ccc(/C=C/C(=O)c2cccc([N+](=O)[O-])c2)cc1`, in [1], the “growth inhibition (GI)” value is on record as 98%. For the same molecule, the minimal inhibitory concentration (MIC) in assay [1] stood at 1000 µg/mL (≈ 3530 µM). In addition, the 50% inhibitory concentration (IC50) result in the assay with Leishmania braziliensis is reported as “Not Active”. The MIC99 in the assay on Aspergillus niger worked out at 200 µg/mL; with Aspergillus clavatus, 200 µg/mL; in the assay with Candida albicans [2] it was 1000 µg/mL; in the assay on Pseudomonas aeruginosa, 200 µg/mL; with Escherichia coli, 200 µg/mL; in the assay on Streptococcus pyogenes, 500 µg/mL. Besides, the MIC99 in the assay with Staphylococcus aureus was 500 µg/mL.
For `COc1ccc(C2CC(c3cccc([N+](=O)[O-])c3)=NN2C(C)=O)c(OC)c1OC` (configuration not stated), the “growth inhibition (GI)” value in assay [1] amounted to 99%. Further, the minimal inhibitory concentration (MIC) in assay [1] came to 250 µg/mL (≈ 626 µM). Moreover, the IC50 entry with Leishmania braziliensis is listed as “Not Active”. Besides, the MIC99 with Aspergillus niger is 250 µg/mL; in the assay on Aspergillus clavatus it was 250 µg/mL; with Candida albicans [2] it was 1000 µg/mL; in the assay with Pseudomonas aeruginosa, 100 µg/mL; with Escherichia coli, 100 µg/mL; in the assay on Streptococcus pyogenes it was 250 µg/mL. Besides, in the assay with Staphylococcus aureus, the MIC99 was determined as 250 µg/mL.
For `COc1cc(OC)c(C2CC(c3cccc([N+](=O)[O-])c3)=NN2C(C)=O)cc1OC` (configuration not stated), in assay [1], the “growth inhibition (GI)” value is recorded as 98%. The MIC in assay [1] turned out to be 500 µg/mL (≈ 1250 µM). Moreover, in the assay with Leishmania braziliensis, the IC50 entry is “Not Active”. The MIC99 in the assay with Aspergillus niger turned out to be 250 µg/mL; in the assay on Aspergillus clavatus, 250 µg/mL; in the assay on Candida albicans [2], 1000 µg/mL; with Pseudomonas aeruginosa, 125 µg/mL; in the assay on Escherichia coli it was 125 µg/mL; in the assay on Streptococcus pyogenes, 125 µg/mL. Moreover, in the assay on Staphylococcus aureus, the MIC99 came out at 100 µg/mL.
In the case of `CC(=O)N1N=C(c2cccc([N+](=O)[O-])c2)CC1c1ccc2ccccc2c1` (configuration not stated), the “growth inhibition (GI)” value in assay [1] worked out at 98%. In addition, the MIC in assay [1] amounted to 1000 µg/mL (≈ 2780 µM). Also, the IC50 result in the assay with Leishmania braziliensis is “Not Active”. In the assay on Candida albicans [3], the Ratio was found to be 2. For the same molecule, the MIC99 is above 1000 µg/mL with Aspergillus niger; above 1000 µg/mL in the assay with Aspergillus clavatus; 250 µg/mL with Candida albicans [2]; 250 µg/mL with Pseudomonas aeruginosa; 250 µg/mL in the assay on Escherichia coli; 100 µg/mL in the assay on Streptococcus pyogenes. Further, the MIC99 in the assay on Staphylococcus aureus came to 100 µg/mL.
For the molecule `COc1ccc(C2CC(c3cccc([N+](=O)[O-])c3)=NN2)cc1` (configuration not stated), in assay [1], the “growth inhibition (GI)” value was determined as 99%. Further, the minimal inhibitory concentration (MIC) in assay [1] was 250 µg/mL (≈ 841 µM). In addition, the half-maximal inhibitory concentration (IC50) in the assay on Leishmania braziliensis (setting [4]) is above 100 µM. For the same molecule, in the assay with Candida albicans [3], the Ratio was found to be 2. In addition, the MIC99 with Aspergillus niger was 1000 µg/mL; in the assay on Aspergillus clavatus it was 1000 µg/mL; in the assay with Candida albicans [2], 250 µg/mL; with Pseudomonas aeruginosa, 100 µg/mL; in the assay on Escherichia coli, 62.5 µg/mL; with Streptococcus pyogenes, 500 µg/mL. In addition, in the assay on Staphylococcus aureus, the MIC99 was found to be 500 µg/mL.
As to `COc1ccc(/C=C/C(=O)c2cccc([N+](=O)[O-])c2)cc1OC`, the “growth inhibition (GI)” value in [1] worked out at 98%. Moreover, the minimum inhibitory concentration (MIC) in assay [1] came out at 500 µg/mL (≈ 1600 µM). Besides, in the assay with Leishmania braziliensis (setting [4]), the IC50 was above 100 µM. Moreover, the MIC99 is above 1000 µg/mL with Aspergillus niger; above 1000 µg/mL with Aspergillus clavatus; 500 µg/mL in the assay on Candida albicans [2]; 200 µg/mL in the assay with Pseudomonas aeruginosa; 100 µg/mL in the assay with Escherichia coli; 200 µg/mL in the assay with Streptococcus pyogenes. Further, the MIC99 in the assay on Staphylococcus aureus is 200 µg/mL.
Consider `CC1(C)S[C@@H]2[C@H](NC(=O)[C@H](N)c3ccccc3)C(=O)N2[C@H]1C(=O)O` [AMPICILLIN], for which the MIC99 with Pseudomonas aeruginosa was determined as 100 µg/mL; in the assay on Escherichia coli, 100 µg/mL; in the assay on Streptococcus pyogenes it was 100 µg/mL; in the assay on Staphylococcus aureus, 250 µg/mL.
Take `COC1=CC(=O)C[C@@H](C)[C@]12Oc1c(Cl)c(OC)cc(OC)c1C2=O` [GRISEOFULVIN]: the figures for the MIC99 in the assay with Aspergillus niger, in the assay on Aspergillus clavatus and in the assay with Candida albicans [2] were 100 µg/mL, 100 µg/mL and 500 µg/mL, respectively.
On to `CO[C@H]1/C=C/O[C@@]2(C)Oc3c(C)c(O)c4c(O)c(c(/C=N/N5CCN(C)CC5)c(O)c4c3C2=O)NC(=O)/C(C)=C\C=C\[C@H](C)[C@H](O)[C@@H](C)[C@@H](O)[C@@H](C)[C@H](OC(C)=O)[C@@H]1C` [RIFAMPIN], for which, in assay [1], the “growth inhibition (GI)” value amounted to 98% and the MIC is 40 µg/mL (≈ 48.6 µM).

The values above are taken from ChEMBL document CHEMBL2429852, “Synthesis and evaluation of new chalcones, derived pyrazoline and cyclohexenone derivatives as potent antimicrobial, antitubercular and antileishmanial agents” (Med Chem Res, 2013).
